# Measurements from ChEMBL document CHEMBL1201862, “PubChem BioAssay data set” (2004).
#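 Five compound concentrations were applied to cells in 96-well plates for 48 hours; endpoints were derived by simple linear interpolation of the resulting dose-response curve. The concentration for 50% growth inhibition is given as GI50.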 Active and inactive are the calls of the source. Rule as the data show it: active = GI50 up to about 1.1 µM and inactive = higher.
# Key:
# Assay in all cases: NCI-60 cell line screen, 48 h
# CAKI-1 = test system: CAKI-1
# HCT-116 = test system: HCT-116
# HCT-15 = test system: HCT-15
# HOP-62 = test system: HOP-62
# HOP-92 = test system: HOP-92
# HT-29 = test system: HT-29
# Hs-578T = test system: Hs-578T
# KM12 = test system: KM12
# MCF7 = test system: MCF7
# MDA-MB-231 = test system: MDA-MB-231
# MOLT-4 = test system: MOLT-4
# NCI-H460 = test system: NCI-H460
# NCI-H522 = test system: NCI-H522
# NCI/ADR-RES = test system: NCI/ADR-RES
# OVCAR-5 = test system: OVCAR-5
# PC-3 = test system: PC-3
# RXF 393 = test system: RXF 393
# SF-539 = test system: SF-539
# SK-OV-3 = test system: SK-OV-3
# SR = test system: SR
Structure (SMILES),GI50 (CAKI-1),GI50 (HCT-116),GI50 (HCT-15) [µM],GI50 (HOP-62),GI50 (HOP-92),GI50 (HT-29),GI50 (Hs-578T),GI50 (KM12),GI50 (MCF7),GI50 (MDA-MB-231),GI50 (MOLT-4),GI50 (NCI-H460),GI50 (NCI-H522),GI50 (NCI/ADR-RES),GI50 (OVCAR-5),GI50 (PC-3),GI50 (RXF 393),GI50 (SF-539),GI50 (SK-OV-3),GI50 (SR)
CN(C)c1ccc(/N=C2/C=CC(=C(C#N)C#N)c3ccccc32)cc1,0.55 µM (active),0.117 µM (active),0.195,0.468 µM (active),0.07 µM (active),0.177 µM (active),0.361 µM (active),0.381 µM (active),0.178 µM (active),0.307 µM (active),0.196 µM (active),0.332 µM (active),0.0555 µM (active),0.0975 µM (active),0.326 µM (active),0.183 µM (active),0.46 µM (active),0.208 µM (active),0.332 µM (active),0.0345 µM (active)
C/C(=N/NC(=S)N1CCCCCC1)c1ccccc1O,8.05 µM (inactive),3.11 µM (inactive),1.26,1.99 µM (inactive),50.2 µM (inactive),7.73 µM (inactive),> 100 µM (inactive),3.67 µM (inactive),3.31 µM (inactive),29.9 µM (inactive),2.26 µM (inactive),0.65 µM (active),1.49 µM (inactive),1.69 µM (inactive),12.7 µM (inactive),6.7 µM (inactive),51.5 µM (inactive),3.86 µM (inactive),12.7 µM (inactive),0.492 µM (active)
CC(=O)Oc1ccc(-c2nnc(-c3ccc(OC(C)=O)cc3)nn2)cc1,> 100 µM (inactive),> 100 µM (inactive),51.4,> 100 µM (inactive),> 100 µM (inactive),> 100 µM (inactive),> 100 µM (inactive),> 100 µM (inactive),> 100 µM (inactive),> 100 µM (inactive),> 100 µM (inactive),> 100 µM (inactive),> 100 µM (inactive),38.8 µM (inactive),> 100 µM (inactive),> 100 µM (inactive),> 100 µM (inactive),> 100 µM (inactive),> 100 µM (inactive),20.4 µM (inactive)
Cc1cccc(C)c1/N=N/c1ccc(O)c(CN(C)C)c1,79.4 µM (inactive),68.7 µM (inactive),> 100,51.6 µM (inactive),3.21 µM (inactive),22.7 µM (inactive),30.8 µM (inactive),> 100 µM (inactive),89.1 µM (inactive),> 100 µM (inactive),34.8 µM (inactive),26 µM (inactive),42.6 µM (inactive),41.2 µM (inactive),28.3 µM (inactive),62.8 µM (inactive),0.716 µM (active),79.4 µM (inactive),> 100 µM (inactive),34.4 µM (inactive)
CCN(CC)C1Oc2cc3c(cc2C(c2cc(OC)c(OC)c(OC)c2)C1C)OCO3 (stereo not given),1.85 µM (inactive),0.465 µM (active),0.518,0.471 µM (active),0.676 µM (active),0.603 µM (active),0.759 µM (active),0.53 µM (active),0.435 µM (active),3.15 µM (inactive),0.871 µM (active),0.944 µM (active),0.344 µM (active),0.219 µM (active),2 µM (inactive),0.979 µM (active),0.839 µM (active),0.457 µM (active),1.1 µM (active),0.256 µM (active)
O=C1C=CC(=O)c2c1ccc1c3ccccc3n(CCCCCn3c4ccccc4c4ccc5c(c43)C(=O)C=CC5=O)c21,6.98 µM (inactive),12.8 µM (inactive),17.2,> 91.4 µM (inactive),16.5 µM (inactive),32 µM (inactive),21.2 µM (inactive),> 100 µM (inactive),19.7 µM (inactive),21.2 µM (inactive),1.52 µM (inactive),> 78 µM (inactive),2.02 µM (inactive),25.6 µM (inactive),> 49.5 µM (inactive),17.1 µM (inactive),5.68 µM (inactive),16.1 µM (inactive),> 100 µM (inactive),1.9 µM (inactive)
C=C1C(=O)OC2CC1C(O)C/C(C)=C/CC/C(C)=C/C(O)CC2C (stereo not given),2.75 µM (inactive),1.45 µM (inactive),1.73,11.4 µM (inactive),1.26 µM (inactive),1.78 µM (inactive),3.03 µM (inactive),5.21 µM (inactive),2.06 µM (inactive),3.52 µM (inactive),0.625 µM (active),2.88 µM (inactive),0.216 µM (active),2 µM (inactive),4.97 µM (inactive),3.11 µM (inactive),1.01 µM (active),2.35 µM (inactive),12.7 µM (inactive),0.52 µM (active)
